The values below are quoted from earlier work in US20130064888A1, “PHARMACEUTICAL FORMULATIONS” (priority 2011, published 2013).

The conditions of data set [1]: at 25° C.; practically insoluble in water.
The conditions of data set [2]: many organic solvents, including ethanol.

For the substance “5-chloro-N-({(5S)-2-oxo-3-[4-(3-oxo-4-morpholinyl)-phenyl]-1,3-oxaolidin-5-yl}methyl-2-thiophencarboxamide [Rivaroxaban]”, in data set [1], the water solubility is < 100 µg/mL. Also, the “solubility in organic solvents” value in data set [2] is given as “low solubility”.
